These are literature values, as cited in US5385929A, “[(Hydroxyphenylamino) carbonyl] pyrroles” (Warner-Lambert Company, priority 1994, dated 1995).

SMILES strings stand for the structures.

This data set relates to biosynthesis of cholesterol. The following applies: qualitative; described in U.S. Pat. No. 5,273,995.

As for `CC(C)c1c(C(=O)Nc2ccccc2)c(-c2ccccc2)c(-c2ccc(F)cc2)n1CC[C@@H](O)C[C@@H](O)CC(=O)O` [Compound of Patent 5,273,995 (open form), [R-(R*,R*)]-2-(4-fluorophenyl)-β,δ-dihydroxy-5-(1-methylethyl)-3-phenyl-4-[(phenylamino)carbonyl]-1H-pyrrole-1-heptanoic acid], the “activity as a hypocholesterolemic agent” value was “particularly active as a hypocholesterolemic agent”.
